Activity calls are given as the source filed them.
Tests used:
[1] = inhibitors of firefly luciferase expression or activity, dose response, H4 neuroglioma cells, luminescence (AID 1990); type: functional, cell-based
[2] = Luminescence Cell-Based Dose Response HTS to Identify Inhibitors of 5'UTR Stem-Loop Driven Prion Protein mRNA Translation in H4 Neuroglioblastoma Cells. [Related pubchem assays: 1827 (Project Summary), 1813 (Primary HTS)]; type: functional
[3] = inhibitors of SNCA 5'UTR-driven reporter translation, confirmation, H4 neuroglioma cells, luminescence (AID 1988); type: functional, cell-based
[4] = growth suppression of PTEN-null colon cells, dose response, cell-based, HCT116 PTEN knockout (AID 1047); type: functional;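 note: HCT116 colon tumor cells with PTEN knocked out; cells exposed to compound for 60 hours before readout; potency for loss of cell viability measured by luminescence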
[5] = growth suppression of beta-catenin-knockout colon cells, dose response, cell-based, HCT116, human colon tumor (AID 1045); type: functional;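 note: HCT116 colon tumor cells with beta catenin knocked out; cells exposed to compound for 60 hours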
[6] = biological target: T1, Leucine aminopeptidase (Plasmodium falciparum 3D7, UniProt Q8IL11); test: P. falciparum M17LAP inhibitors, primary screen, biochemical, fluorogenic H-Leu-NHMec substrate, 1536-well (AID 1619); type: functional
T1 sequence (Q8IL11 whole entry): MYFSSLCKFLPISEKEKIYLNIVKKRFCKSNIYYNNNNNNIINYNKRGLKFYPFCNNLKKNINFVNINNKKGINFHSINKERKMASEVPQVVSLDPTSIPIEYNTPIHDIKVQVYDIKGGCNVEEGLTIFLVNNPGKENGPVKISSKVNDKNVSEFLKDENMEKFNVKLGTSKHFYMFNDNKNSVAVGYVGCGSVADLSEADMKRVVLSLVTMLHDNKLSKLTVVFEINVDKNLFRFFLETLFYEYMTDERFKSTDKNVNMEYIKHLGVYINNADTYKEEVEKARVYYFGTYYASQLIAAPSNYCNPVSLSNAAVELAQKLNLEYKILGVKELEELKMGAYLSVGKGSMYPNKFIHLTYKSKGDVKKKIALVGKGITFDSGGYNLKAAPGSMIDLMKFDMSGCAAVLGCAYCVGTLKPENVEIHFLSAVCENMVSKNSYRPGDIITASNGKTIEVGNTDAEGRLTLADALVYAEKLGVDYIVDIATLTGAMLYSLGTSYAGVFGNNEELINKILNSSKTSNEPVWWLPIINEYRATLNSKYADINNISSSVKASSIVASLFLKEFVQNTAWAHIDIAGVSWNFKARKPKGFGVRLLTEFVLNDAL

[7] = biological target: G-protein coupled receptor 55 (Homo sapiens, UniProt Q9Y2T6); test: GPR55 antagonists blocking LPI-driven arrestin recruitment, primary screen, imaging, U2OS, beta-arrestin-GFP, LPI agonist (AID 2013); type: functional;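 note: antagonist potency measured as reduced agonist-driven arrestin aggregation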
[8] = Luminescence Cell-Based Dose Response to Identify Activators of 5'UTR Stem-Loop Driven Prion Protein mRNA Translation in H4-C Neuroglioblastoma Cells. [Related pubchem assays: 1829 (Project Summary), 1814 (Primary HTS)]; type: functional
[9] = Luminescence Cell-Based Dose Response HTS to Identify Activators of Luciferase Translation or Activity in H4 […] Cells. [Related pubchem assays: 1829 (Project Summary), 1814 (Primary HTS)]; type: functional
[10] = system: H4; test: Luminescence Cell-Based Dose Response HTS to Identify Activators of 5'UTR Stem-Loop Driven Prion Protein mRNA Translation in H4 Neuroglioblastoma Cells. [Related pubchem assays: 1829 (Project Summary), 1814 (Primary HTS)]; type: functional; details: Homo sapiens
[11] = Luminescence Cell-Based Dose Response to Identify Activators of Luciferase Translation or Activity in H4-C Neuroglioblastoma Cells. [Related pubchem assays: 1829 (Project Summary), 1814 (Primary HTS)]; type: functional
[12] = Luminescence Cell-Based Dose Confirmation to Identify Activators of 5'UTR Stem-Loop Driven Alpha-Synuclein mRNA Translation in H4 Neuroglioblastoma Cells. [Related pubchem assays: 1829 (Project Summary), 1814 (Primary HTS)]; type: functional
[13] = Luminescence Cell-Based Dose Confirmation HTS to Identify Activators of 5'UTR Stem-Loop Driven Alpha-Synuclein mRNA Translation in H4 Neuroglioblastoma Cells. [Related pubchem assays: 1829 (Project Summary), 1814 (Primary HTS)]; type: functional
[14] = system: INS1; test: beta cell apoptosis inhibitors, cytokine rescue, dose response, luminescence, retest (AID 449756); type: functional, cell-based; details: Rattus norvegicus;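 note: cell death triggered by IL-1 beta plus TNF-alpha plus IFN-gamma mixture; protective hits raise ATP signal compared with cytokine alone wells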
[15] = biological target: T2, Histone-lysine N-methyltransferase NSD2 (Homo sapiens, UniProt O96028); type: biochemical
T2 sequence (O96028 whole entry): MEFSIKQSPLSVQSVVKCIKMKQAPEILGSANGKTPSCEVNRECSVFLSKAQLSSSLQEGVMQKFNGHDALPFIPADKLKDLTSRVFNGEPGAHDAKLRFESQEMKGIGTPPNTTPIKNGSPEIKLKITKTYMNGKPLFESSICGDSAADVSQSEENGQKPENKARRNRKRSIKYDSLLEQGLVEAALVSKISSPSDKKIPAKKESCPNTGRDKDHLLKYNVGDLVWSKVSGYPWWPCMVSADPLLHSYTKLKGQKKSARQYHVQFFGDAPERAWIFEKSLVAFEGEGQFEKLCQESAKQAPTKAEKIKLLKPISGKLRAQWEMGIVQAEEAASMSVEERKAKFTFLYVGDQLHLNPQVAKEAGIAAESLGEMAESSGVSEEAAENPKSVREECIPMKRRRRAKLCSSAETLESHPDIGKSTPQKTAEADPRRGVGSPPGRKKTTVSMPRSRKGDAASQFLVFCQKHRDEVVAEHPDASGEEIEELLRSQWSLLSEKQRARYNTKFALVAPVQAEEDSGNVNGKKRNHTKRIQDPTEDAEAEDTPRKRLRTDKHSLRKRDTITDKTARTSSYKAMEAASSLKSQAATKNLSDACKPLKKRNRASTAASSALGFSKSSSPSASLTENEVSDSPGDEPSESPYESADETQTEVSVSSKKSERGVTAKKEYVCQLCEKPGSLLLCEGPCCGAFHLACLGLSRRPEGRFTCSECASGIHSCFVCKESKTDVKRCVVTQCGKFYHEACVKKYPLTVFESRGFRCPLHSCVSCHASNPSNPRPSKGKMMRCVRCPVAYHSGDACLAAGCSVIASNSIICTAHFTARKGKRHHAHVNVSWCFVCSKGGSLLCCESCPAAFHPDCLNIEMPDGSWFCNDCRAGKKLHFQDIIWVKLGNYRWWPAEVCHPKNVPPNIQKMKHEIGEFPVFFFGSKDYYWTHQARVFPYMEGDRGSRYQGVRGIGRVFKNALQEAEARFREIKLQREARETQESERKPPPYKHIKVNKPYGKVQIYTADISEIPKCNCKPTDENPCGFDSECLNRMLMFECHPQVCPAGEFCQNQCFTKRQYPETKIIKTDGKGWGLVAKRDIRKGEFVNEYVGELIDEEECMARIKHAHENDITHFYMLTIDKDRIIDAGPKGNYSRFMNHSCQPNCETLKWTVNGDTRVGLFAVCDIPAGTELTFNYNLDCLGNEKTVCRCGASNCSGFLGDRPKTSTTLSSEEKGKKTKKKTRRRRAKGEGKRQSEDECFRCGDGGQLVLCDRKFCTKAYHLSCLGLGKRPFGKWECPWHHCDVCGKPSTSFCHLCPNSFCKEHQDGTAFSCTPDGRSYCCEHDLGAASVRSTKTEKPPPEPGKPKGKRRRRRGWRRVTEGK

[16] = biological target: DNA dC->dU-editing enzyme APOBEC-3A (Homo sapiens, UniProt P31941); test: APOBEC3A DNA deaminase inhibitors, dose response, biochemical (AID 504722); type: functional
[17] = biological target: DNA dC->dU-editing enzyme APOBEC-3G (Homo sapiens, UniProt Q9HC16); test: Dose Response confirmation of small molecule APOBEC3G DNA Deaminase Inhibitors via a fluorescence-based single-stranded DNA deaminase assay. [Related pubchem assays (depositor defined):AID493012, AID493028]; type: functional
[18] = biological target: T3, Rac GTPase-activating protein 1 (Homo sapiens, UniProt Q9H0H5); test: MgcRacGAP GTPase-activating activity inhibitors, confirmation, biochemical, ADP Hunter fluorescence, primary and confirmatory (AID 624330); type: functional
T3 sequence (Q9H0H5 whole entry): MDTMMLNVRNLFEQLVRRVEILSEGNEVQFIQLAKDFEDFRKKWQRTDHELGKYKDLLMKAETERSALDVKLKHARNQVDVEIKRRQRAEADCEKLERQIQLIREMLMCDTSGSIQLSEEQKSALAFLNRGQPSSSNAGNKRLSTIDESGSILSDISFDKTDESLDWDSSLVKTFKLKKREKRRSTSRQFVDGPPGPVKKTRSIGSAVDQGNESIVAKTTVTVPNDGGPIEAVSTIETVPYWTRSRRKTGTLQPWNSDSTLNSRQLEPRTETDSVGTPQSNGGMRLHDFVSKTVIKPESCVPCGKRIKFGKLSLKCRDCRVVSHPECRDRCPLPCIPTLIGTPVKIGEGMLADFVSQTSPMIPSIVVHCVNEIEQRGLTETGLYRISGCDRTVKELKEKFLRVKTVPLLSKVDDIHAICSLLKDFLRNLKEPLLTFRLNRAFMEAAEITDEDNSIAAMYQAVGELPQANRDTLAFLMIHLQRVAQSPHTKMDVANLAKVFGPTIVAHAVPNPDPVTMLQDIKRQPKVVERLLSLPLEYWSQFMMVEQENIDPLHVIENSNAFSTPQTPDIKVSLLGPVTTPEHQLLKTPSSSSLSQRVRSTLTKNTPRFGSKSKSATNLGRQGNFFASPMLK

[19] = biological target: FAD-linked sulfhydryl oxidase ALR (Homo sapiens, UniProt P55789); test: inhibitors of human ALR sulfhydryl oxidase, dose response, biochemical, H2O2 detection, luminescence, cherry-pick (AID 493248)
[20] = biological target: Paired box protein Pax-8 (Homo sapiens, UniProt Q06710); test: inhibitors of PAX8-driven TPO luciferase reporter, dose response, RMG-I cells, cherry-pick (AID 687027); type: functional, cell-based;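 note: luciferase reporter driven by Pax8 target thyroperoxidase promoter measured by SteadyGlo luminescence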
[21] = NIH:OVCAR-3 ovarian cancer cell cytotoxicity, dose response, PAX8 inhibitor project, plate reader, dry powder samples (AID 743044); type: functional, cell-based
[22] = IGROV1 ovarian cancer cell cytotoxicity, dose response, PAX8 inhibitor project, plate reader, dry powder samples (AID 743043); type: functional, cell-based; details: IGROV-1
[23] = cytotoxicity in OVCAR8 ovarian cancer cells, dose response, PAX8 project, cell-based, plate reader, dry powder samples (AID 743197); type: functional; details: OVCAR-8

DNA dC->dU-editing enzyme APOBEC-3G, sequence (Q9HC16 whole entry): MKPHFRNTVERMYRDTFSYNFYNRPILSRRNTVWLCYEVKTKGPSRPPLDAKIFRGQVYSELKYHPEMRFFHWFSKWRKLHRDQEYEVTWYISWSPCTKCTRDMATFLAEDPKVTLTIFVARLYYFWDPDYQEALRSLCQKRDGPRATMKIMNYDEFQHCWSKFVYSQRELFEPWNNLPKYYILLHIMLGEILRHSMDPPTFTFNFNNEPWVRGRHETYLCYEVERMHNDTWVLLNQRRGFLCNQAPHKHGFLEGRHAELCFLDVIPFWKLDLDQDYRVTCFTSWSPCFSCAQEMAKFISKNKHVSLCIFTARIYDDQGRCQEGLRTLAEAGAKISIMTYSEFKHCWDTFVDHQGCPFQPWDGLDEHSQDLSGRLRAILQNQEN
DNA dC->dU-editing enzyme APOBEC-3A, sequence (P31941 whole entry): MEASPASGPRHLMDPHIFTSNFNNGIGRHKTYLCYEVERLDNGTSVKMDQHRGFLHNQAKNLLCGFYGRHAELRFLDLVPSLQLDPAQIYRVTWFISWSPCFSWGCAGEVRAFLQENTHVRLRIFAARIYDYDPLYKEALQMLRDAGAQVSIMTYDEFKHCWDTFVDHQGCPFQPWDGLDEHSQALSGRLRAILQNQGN
G-protein coupled receptor 55, sequence (Q9Y2T6 whole entry): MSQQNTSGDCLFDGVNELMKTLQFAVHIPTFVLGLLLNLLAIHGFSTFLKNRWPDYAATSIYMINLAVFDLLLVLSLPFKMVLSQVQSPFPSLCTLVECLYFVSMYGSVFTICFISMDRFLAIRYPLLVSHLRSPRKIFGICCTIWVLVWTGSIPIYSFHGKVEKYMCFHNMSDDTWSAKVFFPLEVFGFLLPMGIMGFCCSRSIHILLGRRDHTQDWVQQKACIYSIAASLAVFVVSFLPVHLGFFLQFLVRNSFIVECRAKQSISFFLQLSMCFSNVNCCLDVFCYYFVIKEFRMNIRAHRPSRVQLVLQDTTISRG
FAD-linked sulfhydryl oxidase ALR, sequence (P55789 whole entry): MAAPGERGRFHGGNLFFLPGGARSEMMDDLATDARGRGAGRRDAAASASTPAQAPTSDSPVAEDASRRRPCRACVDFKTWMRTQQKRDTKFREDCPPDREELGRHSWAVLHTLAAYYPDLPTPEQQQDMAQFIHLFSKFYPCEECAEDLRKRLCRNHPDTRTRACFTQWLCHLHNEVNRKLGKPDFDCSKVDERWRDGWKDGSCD
Paired box protein Pax-8, sequence (Q06710 whole entry): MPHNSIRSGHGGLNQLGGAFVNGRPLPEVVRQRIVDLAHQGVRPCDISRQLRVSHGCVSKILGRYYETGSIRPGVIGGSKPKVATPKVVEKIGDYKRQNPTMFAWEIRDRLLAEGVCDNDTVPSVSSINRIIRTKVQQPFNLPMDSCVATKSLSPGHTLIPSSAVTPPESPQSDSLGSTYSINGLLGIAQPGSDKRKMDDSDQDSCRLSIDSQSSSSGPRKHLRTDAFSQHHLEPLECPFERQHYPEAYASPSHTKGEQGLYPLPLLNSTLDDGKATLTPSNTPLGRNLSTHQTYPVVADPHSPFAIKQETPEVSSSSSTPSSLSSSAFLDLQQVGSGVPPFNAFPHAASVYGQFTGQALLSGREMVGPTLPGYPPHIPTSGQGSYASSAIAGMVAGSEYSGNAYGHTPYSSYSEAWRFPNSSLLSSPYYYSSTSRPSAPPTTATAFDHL

Compound: NC(=O)c1sc2nc3c(c(-c4cccs4)c2c1N)CCCC3
- EC50 [1]: < 0.1 µM (active)
- EC50 [2]: 0.125 µM (active)
- EC50 [3]: 16.1 µM (active)
- EC50 [4]: 36.5 µM (active)
- EC50 [5]: 118 µM (active)

Compound: CCc1nnc(NS(=O)(=O)c2ccc(NC(=O)/C=C/c3ccc(OC)cc3OC)cc2)s1
- IC50 [6]: 7.96 µM (active)
- IC50 [7]: 1.44 µM (active)

Compound: Oc1c(C2=CC(C(F)(F)F)=NCCN2)ccc2ccccc12
- EC50 [8]: 0.364 µM (active)
- EC50 [9]: < 0.1 µM (inconclusive)
- EC50 [10]: < 0.1 µM (active)
- EC50 [11]: 0.345 µM (active)
- EC50 [12]: 0.337 µM (active)

Compound: O=C(NC(=S)Nc1nc2c(s1)CCCC2)c1ccccc1
- EC50 [8]: 0.313 µM (active)
- EC50 [9]: 0.143 µM (active)
- EC50 [10]: < 0.1 µM (active)
- EC50 [11]: 0.341 µM (active)
- EC50 [12]: 0.32 µM (active)

Compound: COC(=O)C1C(=O)c2c([nH]c(C(=O)OCCSC)c2C)CC1C (centres undefined)
- EC50 [8]: 1.34 µM (active)
- EC50 [13]: < 0.1 µM (active)
- EC50 [9]: 21.5 µM (active)
- EC50 [10]: 31.9 µM (active)
- EC50 [11]: 0.963 µM (active)
- EC50 [12]: > 12 µM (not active)

Compound: Cc1cc(Nc2cccc(F)c2)nc(NCc2ccccc2)n1
- EC50 [4]: 11.1 µM (active)
- EC50 [5]: 10.4 µM (active)
- AC50 [14]: 3.9 µM (active)

Compound: CC(=O)NC1=C(N2CC2C)C(=O)C(NC(C)=O)=C(N2CC2C)C1=O (centres undefined)
- AC50 [15]: 10.2 µM (active)

Compound: Nn1c(C2COc3ccccc3O2)n[nH]c1=S (centres undefined)
- IC50 [16]: > 100 µM (inactive)
- IC50 [17]: 5.09 µM (active)

Compound: Cn1c(=O)c2ccccc2n2c(S)nnc12
- IC50 [16]: > 100 µM (inactive)
- IC50 [17]: 3.8 µM (active)
- IC50 [18]: 19.9 µM (active)

Compound: COc1ccc(/C=N/n2c(S)nnc2-c2[nH]nc3c2CCC3)c(OC)c1OC
- IC50 [16]: > 100 µM (inactive)
- IC50 [17]: 4.64 µM (active)
- IC50 [18]: 69.9 µM (active)

Compound: COC(=O)c1ccccc1NC(=S)NC(NC(=O)c1ccco1)C(Cl)(Cl)Cl (centres undefined)
- IC50 [7]: 8.08 µM (active)

Compound: Sc1nnc(C2CCCCC2)n1/N=C/c1ccccn1
- IC50 [16]: > 100 µM (inactive)
- IC50 [17]: 2.23 µM (active)
- AC50 [19]: 1.04 µM (active)

Compound: CCC(C)NCCCOc1cc(Cl)ccc1Cl (centres undefined)
- AC50 [15]: > 20 µM (inactive)

Compound: Cc1cc(C)cc(NC(=O)/C(C#N)=C/c2cn(CC(=O)NCc3ccco3)c3ccccc23)c1
- EC50 [4]: 8.2 µM (active)
- EC50 [5]: 10.6 µM (active)
- AC50 [14]: 3.92 µM (active)

Compound: COc1ccc(C(=O)C[n+]2ccc3c(c2)nc(-c2ccc(OC)cc2OC)n3C)cc1
- EC50 [4]: 31.2 µM (active)
- EC50 [5]: 22 µM (active)

Compound: O=C(Nc1cccc(F)c1)N1CCCCN2[C@@H](CO)[C@@H](c3ccc(C#Cc4ccccc4)cc3)[C@@H]2C1
- AC50 [20]: 10.1 µM (active)
- AC50 [21]: 5.97 µM (active)
- AC50 [22]: 13.4 µM (active)
- AC50 [23]: 21.4 µM (active)

From ChEMBL document CHEMBL1201862, “PubChem BioAssay data set” (2004)
